The text below walks through data of patent US20240376109A1, “PYRAZOLO[1,5-A]PYRIMIDINE COMPOUND FOR THE TREATMENT OF DERMAL DISORDERS” (OTSUKA PHARMACEUTICAL CO., LTD., priority 2021, published 2024).

In the test the target is T1, PAR2 (Homo sapiens, UniProt P55085).
T1 construct: HEK293 cell lines derived from human embryonic kidney cultured in a MEM culture medium; endogenous in cells; host or cells: HEK293
T1 sequence (P55085 26-397): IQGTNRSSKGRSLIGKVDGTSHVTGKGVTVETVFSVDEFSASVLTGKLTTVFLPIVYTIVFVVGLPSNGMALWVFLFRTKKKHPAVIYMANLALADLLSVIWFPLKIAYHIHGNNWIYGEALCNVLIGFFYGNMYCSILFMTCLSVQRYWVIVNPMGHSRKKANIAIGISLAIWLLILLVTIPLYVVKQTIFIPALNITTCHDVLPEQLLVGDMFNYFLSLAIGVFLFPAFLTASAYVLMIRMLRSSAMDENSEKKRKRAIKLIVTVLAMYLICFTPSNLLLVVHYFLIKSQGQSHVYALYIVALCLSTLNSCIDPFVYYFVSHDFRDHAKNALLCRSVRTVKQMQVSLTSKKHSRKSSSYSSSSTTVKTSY
In words: Intracellular calcium concentration measurement (SLIGKV-NH2-induced calcium change, Fluo-8, FDSS/μCELL). The format is cell-based. To be noted: HEK293 cells; SLIGKV-NH2 10 μM-induced intracellular calcium change; read-out: IC50.
Turning to `CC(C)c1cc(CC2CCCCCC2)nc2cc(C(=O)N3CCCCC3(C)C)nn12` [Example 49], the IC50 was 119 nM.

Turning to `CC(C)c1cc(CC2CCCCC2)nc2cc(C(=O)N3CCC=CCC3)nn12` [Example 81], the IC50 turned out to be 246 nM.

Regarding `CC(C)c1cc(CC2CCCC2)nc2cc(C(=O)N3CCC=CCC3)nn12` [Example 80], the IC50 stood at 250 nM.

`CC(C)c1cc(CC2CCCCC2)nc2cc(C(=O)N3CC=CCCC3)nn12` [Example 126]: the IC50 came to 207 nM.

Consider `CC(C)(C)c1cc(C23CC4CC(CC(C4)C2)C3)nc2cc(C(=O)N3CCNCC3(C)C)nn12` [Example 101], for which the IC50 worked out at 70 nM.

As to `O=C(c1cc2nc(CC34CC5CC(CC(C5)C3)C4)cc(C(F)(F)F)n2n1)N1CCCCCC1` [Example 26], the IC50 is 80 nM.

On to `CC1(C)CC(O)CCN1C(=O)c1cc2nc(C34CC5CC(CC(C5)C3)C4)cc(C(F)(F)F)n2n1` (stereo not shown) [Example 102], for which the IC50 was 37 nM.

Consider `O=C(c1cc2nc(CC3CCCCC3)cc(C3CCC3)n2n1)N1CCCCCC1` [Example 137], for which the IC50 worked out at 482 nM.

As to `CC(C)c1cc(CC2CC3CCC2C3)nc2cc(C(=O)N3CCCCCC3)nn12` (stereo not shown) [Example 154], the IC50 worked out at 47 nM.

On to `CC1(C)COCCN1C(=O)c1cc2nc(CC3CCCCC3)cc(C(F)(F)F)n2n1` [Example 66], for which the IC50 stood at 241 nM.

Regarding `COC1CCN(C(=O)c2cc3nc(CC4CCCCC4)cc(C(C)C)n3n2)C(C)(C)C1` (stereo not shown) [Example 42], the IC50 amounted to 40 nM.

Turning to `O=C(c1cc2nc(N3CCCCC3)cc(C(F)(F)F)n2n1)N1CCCCCC1` [Example 95], the IC50 is 742 nM.

Turning to `CCc1cc(CC2CCCCC2)nc2cc(C(=O)N3CCCCCCC3)nn12` [Example 146], the IC50 came out at 136 nM.

In the case of `CCC(C)c1cc(CC2CCCC2)nc2cc(C(=O)N3CCCCC3)nn12` (stereo not shown) [Example 141], the IC50 was 304 nM.

As for `CC1(C)CSCCN1C(=O)c1cc2nc(C3CCCC3)cc(C(F)(F)F)n2n1` [Example 67], the concentration for half-maximal inhibition (IC50) was found to be 174 nM.

Consider `CC(C)c1cc(CC2CCCC2)nc2cc(C(=O)N3CCCC(=O)C3(C)C)nn12` [Example 103], for which the IC50 is 63 nM.

On to `CC(C)c1cc(CC2CCCCC2C)nc2cc(C(=O)N3CCCCCC3)nn12` (stereo not shown) [Example 158], for which the IC50 was 117 nM.

Regarding `CC1(C)CSCCN1C(=O)c1cc2nc(CC3CCCC3)cc(C(F)(F)F)n2n1` [Example 108], the IC50 is 78 nM.

`CC(C)c1cc(CC2CCCCC2)nc2cc(C(=O)N3CCC(C)(C)C(=O)C3(C)C)nn12` [Example 119]: the IC50 turned out to be 185 nM.

With `O=C(c1cc2nc(CC3CCCCC3)cc(C3CCCCCC3)n2n1)N1CCCCCC1` [Example 115], the half-inhibitory concentration (IC50) came out at 236 nM.

As to `CC(C)c1cc(CC2CCCCC2)nc2cc(C(=O)N3CCCCC3)nn12` [Example 140], the IC50 was 266 nM.

Take `CCC(CC)c1cc(CC2CCCC2)nc2cc(C(=O)N3CCCCCCC3)nn12` [Example 79]: the IC50 amounted to 145 nM.

With `O=C(c1cc2nc(CC3CCCCC3)cc(C3CC3)n2n1)N1CCCCCC1` [Example 36], the half-maximal inhibitory concentration (IC50) stood at 369 nM.

Consider `CC(C)c1cc(CC2CCCC2)nc2cc(C(=O)N3CC=CCCC3)nn12` [Example 123], for which the IC50 came out at 135 nM.

As to `CC(C)c1cc(C2CCCCC2)nc2cc(C(=O)N3CCCCCC3)nn12` [Example 34], the IC50 stood at 265 nM.

With `CCc1cc(C2CCCCCC2)nc2cc(C(=O)N3CCCCCC3)nn12` [Example 136], the half-inhibitory concentration (IC50) came out at 452 nM.

With `CC(C)c1cc(CC2CCCCC2)nc2cc(C(=O)N3CCC(C)(C)C(O)C3(C)C)nn12` (stereo not shown) [Example 120], the IC50 was determined as 298 nM.

As for `CCCCC1CCC(c2cc(C(F)(F)F)n3nc(C(=O)N4CCCCCC4)cc3n2)CC1` (stereo not shown) [Example 58], the IC50 turned out to be 464 nM.

Turning to `COC1CCN(C(=O)c2cc3nc(CC4CCCC4)cc(C(F)(F)F)n3n2)C(C)(C)C1` (stereo not shown) [Example 113], the IC50 is 263 nM.

On to `CC(C)c1cc(C23CC4CC(CC(C4)C2)C3)nc2cc(C(=O)N3CCC(O)CC3(C)C)nn12` (stereo not shown) [Example 64], for which the 50% inhibitory concentration (IC50) was 17 nM.

For the compound `CC(C)Cc1cc(CC2CCCCC2)nc2cc(C(=O)N3CCCCCC3)nn12` [Example 40], the IC50 stood at 184 nM.

Turning to `O=C(c1cc2nc(CC3CCCC3)cc(C(F)(F)F)n2n1)N1CCCCCCCC1` [Example 41], the IC50 was determined as 246 nM.

For the compound `CC(C)c1cc(CC2CCCCC2)nc2cc(C(=O)N3CCC(O)CC3(C)C)nn12` (stereo not shown) [Example 118], the IC50 was 253 nM.

Consider `O=C(c1cc2nc(CC3CCCC3)cc(C3CCCCC3)n2n1)N1CCCCCC1` [Example 134], for which the IC50 turned out to be 382 nM.

In the case of `CCC1CCC(Cc2cc(C(C)C)n3nc(C(=O)N4CCCCC4)cc3n2)CC1` (stereo not shown) [Example 138], the IC50 turned out to be 72 nM.

For `CC(C)c1cc(CC2CCC2)nc2cc(C(=O)N3CCCCCC3)nn12` [Example 45], the 50% inhibitory concentration (IC50) came out at 632 nM.

For `CC1(C)CCCCN1C(=O)c1cc2nc(C3C4CC5CC(C4)CC3C5)cc(C(F)(F)F)n2n1` (stereo not shown) [Example 112], the IC50 came to 113 nM.

As to `CCC(C)c1cc(CC2CCCCC2)nc2cc(C(=O)N3CCCCC3(C)C)nn12` (stereo not shown) [Example 124], the IC50 worked out at 144 nM.

As to `CC(C)c1cc(CC2(C)CCCCC2)nc2cc(C(=O)N3CCCCCC3)nn12` [Example 98], the IC50 worked out at 270 nM.

In the case of `CC(C)c1cc(C2CC23CCCCC3)nc2cc(C(=O)N3CCCCCC3)nn12` (stereo not shown) [Example 151], the IC50 came to 149 nM.

Regarding `Cc1cc(CC2CCC(C)CC2)nc2cc(C(=O)N3CCCCCC3)nn12` (stereo not shown) [Example 20], the IC50 was found to be 24 nM.

Consider `CC(C)c1cc(CC2CCCCC2)nc2cc(C(=O)N3CCCC(C)(O)C3(C)C)nn12` (stereo not shown) [Example 107], for which the IC50 came out at 67 nM.

As for `CC(C)c1cc(C2CC3CCC2C3)nc2cc(C(=O)N3CCCCCC3)nn12` (stereo not shown) [Example 157], the half-maximal inhibitory concentration (IC50) came out at 319 nM.

Turning to `CC(C)c1cc(C23CC4CC(CC(C4)C2)C3)nc2cc(C(=O)N3CCCCCC3)nn12` [Example 22], the half-maximal inhibitory concentration (IC50) came out at 137 nM.

Consider `O=C(c1cc2nc(C34CCC(CC3)CC4)cc(C(F)(F)F)n2n1)N1CCCCCC1` [Example 85], for which the IC50 was 310 nM.

As for `CC(C)(C)c1cc(CC2CCCC2)nc2cc(C(=O)N3CCCCCCC3)nn12` [Example 150], the IC50 was 180 nM.

Take `CC(F)(F)c1cc(CC2CCCCC2)nc2cc(C(=O)N3CCCCCC3)nn12` [Example 77]: the IC50 amounted to 273 nM.

As to `CCC(C)c1cc(CC2CCCC2)nc2cc(C(=O)N3CCCCCC3)nn12` (stereo not shown) [Example 38], the IC50 was determined as 102 nM.

As to `CC1CCC(Cc2cc(C(C)C)n3nc(C(=O)N4CCCCCC4)cc3n2)CC1` (stereo not shown) [Example 21], the IC50 was 298 nM.

Consider `CC(C)(C)c1cc(C2CCCCC2)nc2cc(C(=O)N3CCCCCC3)nn12` [Example 43], for which the IC50 turned out to be 185 nM.

Take `CCC(CC)c1cc(CC2CCCC2)nc2cc(C(=O)N3CCCC(=O)C3(C)C)nn12` [Example 68]: the IC50 came out at 15 nM.

For the compound `O=C(c1cc2nc(C3CCCCCC3)cc(C(F)(F)F)n2n1)N1CCCCCC1` [Example 60], the IC50 is 234 nM.

For `CCCCCc1cc(C23CC4CC(CC(C4)C2)C3)nc2cc(C(=O)N3CCCCCC3)nn12` [Example 133], the IC50 came to 360 nM.

As for `CC(C)(C)c1cc(C23CC4CC(CC(C4)C2)C3)nc2cc(C(=O)N3CCCCCC3)nn12` [Example 23], the IC50 is 30 nM.

Consider `CCc1cc(CC2CCCC2)nc2cc(C(=O)N3CCCCCCC3)nn12` [Example 145], for which the IC50 was found to be 252 nM.
